From patent US12391683B2, “Therapeutic compounds and methods” (Actio Biosciences, Inc., priority 2022, dated 2025) come the findings set out here.

As a reminder, the EC50 is the concentration needed to bring the measured effect to its halfway point. For orientation: IC50 means the midpoint of a concentration-inhibition curve.

For the assay, the target named is T1, TRPC3 channels (Homo sapiens, UniProt Q13507).
T1 construct: expressed in transfected cells; host or cells: HEK293
T1 sequence (Q13507 1-921): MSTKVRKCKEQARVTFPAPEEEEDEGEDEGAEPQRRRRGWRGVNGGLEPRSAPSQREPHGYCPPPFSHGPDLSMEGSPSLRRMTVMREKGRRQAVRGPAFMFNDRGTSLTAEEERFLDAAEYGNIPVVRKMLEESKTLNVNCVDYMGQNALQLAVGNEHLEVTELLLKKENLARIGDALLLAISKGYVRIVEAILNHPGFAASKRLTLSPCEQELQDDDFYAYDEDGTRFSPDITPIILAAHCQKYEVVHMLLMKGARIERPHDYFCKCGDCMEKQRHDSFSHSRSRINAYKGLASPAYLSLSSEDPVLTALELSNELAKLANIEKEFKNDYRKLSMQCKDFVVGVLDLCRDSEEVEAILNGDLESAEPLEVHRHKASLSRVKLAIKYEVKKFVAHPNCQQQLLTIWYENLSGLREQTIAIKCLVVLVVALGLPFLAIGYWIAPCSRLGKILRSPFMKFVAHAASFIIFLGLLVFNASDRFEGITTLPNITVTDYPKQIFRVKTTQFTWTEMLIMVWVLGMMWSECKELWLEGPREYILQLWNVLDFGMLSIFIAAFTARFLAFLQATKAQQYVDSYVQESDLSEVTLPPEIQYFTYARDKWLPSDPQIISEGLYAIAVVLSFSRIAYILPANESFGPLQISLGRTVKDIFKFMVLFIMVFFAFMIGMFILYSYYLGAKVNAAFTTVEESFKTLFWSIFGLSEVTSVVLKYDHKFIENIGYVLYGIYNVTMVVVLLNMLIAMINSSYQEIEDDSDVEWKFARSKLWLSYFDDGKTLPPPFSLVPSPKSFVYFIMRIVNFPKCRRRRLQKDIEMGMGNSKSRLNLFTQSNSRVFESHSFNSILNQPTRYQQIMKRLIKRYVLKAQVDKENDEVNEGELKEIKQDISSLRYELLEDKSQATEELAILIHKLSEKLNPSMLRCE
The assay is described as follows: TRP Family FLIPR Assay, TRPC3. The note with it: HEK293 cells. In kind it is cell-based. As for the experimental part: The compound of Example 5 was tested for selectivity against a panel of Human TRP family ion channels in a TRP Family FLIPR Assay as described below. • 1. TRPC3 channels (human TRPC3 variant 1 gene, expressed in HEK293 cells). • 2. TRPC4 channels (human TRPC4 gene, expressed in HEK293 cells). • 3. TRPC5 channels (human TRPC5 gene, expressed in HEK293 cells). • 4. TRPC6 channels (human TRPC6 gene, expressed in HEK293 cells). • 5. TRPM2 channels (human TRPM2 gene, transiently expressed in HEK293 cells). • 6. TRPM3 channels (human TRPM3 gene, transiently expressed in HEK293 cells). • 7. TRPM4 channels (human TRPM4 gene, expressed in CHO cells). • 8. […]
Data acquisition was performed via the FLIPR Control software supplied with the FLIPR System (MDS-AT) and data was analyzed using Microsoft Excel (Microsoft Corp., Redmond, WA) or GraphPad Prism. […]
[formula] where Base is the response at low concentrations of test article, Max is the maximum response at high concentrations, xhalf the EC50, or IC50, the concentration of test article producing either half-maximal activation or inhibition, and rate is the Hill coefficient. […] No assumptions about the fit parameters was made; the fit parameters were determined by the algorithm.
The effect of each test article was evaluated at eight (8) concentrations: 0.003, 0.01, 0.03, 0.1, 0.3, 1, 3 and 10 μM, n≤4 wells/concentration). […]

On to `CC(C)(O)c1cnc(N2C[C@@]3(CC[C@@H](F)[C@](C)(Cn4cnc5ccc(C#N)cc54)C3)OC2=O)cn1` (single isomer, unassigned) [Example 5], for which, under “agonist mode, vs EMAX of GSK1702934A 30 μM, read-out: EC50 hTRPC3”, the EC50 was above 10 µM. Moreover, the IC50 (antagonist mode, activated with 15 μM GSK1702934A, 0.003-10 μM, read-out: IC50 hTRPC3) is above 10 µM.
